Patent US20210163489A1, “PYRAZOLOPYRIMIDINE DERIVATIVES AND THE COMPOSITIONS AND METHODS OF TREATMENT REGARDING THE SAME” (NysnoBio Ireland DAC, priority 2016, published 2021)
Values joined by “and” are separate entries in the source; they are usually repeats but may differ in a detail not shown here. Equal entries are not always repeated.

Biological target: T1, Parkin ligase (Homo sapiens, UniProt O60260)
T1 construct: Enzyme: Parkin-His tagged 203 μM (10.5 mg/ml)
T1 sequence (O60260 1-465): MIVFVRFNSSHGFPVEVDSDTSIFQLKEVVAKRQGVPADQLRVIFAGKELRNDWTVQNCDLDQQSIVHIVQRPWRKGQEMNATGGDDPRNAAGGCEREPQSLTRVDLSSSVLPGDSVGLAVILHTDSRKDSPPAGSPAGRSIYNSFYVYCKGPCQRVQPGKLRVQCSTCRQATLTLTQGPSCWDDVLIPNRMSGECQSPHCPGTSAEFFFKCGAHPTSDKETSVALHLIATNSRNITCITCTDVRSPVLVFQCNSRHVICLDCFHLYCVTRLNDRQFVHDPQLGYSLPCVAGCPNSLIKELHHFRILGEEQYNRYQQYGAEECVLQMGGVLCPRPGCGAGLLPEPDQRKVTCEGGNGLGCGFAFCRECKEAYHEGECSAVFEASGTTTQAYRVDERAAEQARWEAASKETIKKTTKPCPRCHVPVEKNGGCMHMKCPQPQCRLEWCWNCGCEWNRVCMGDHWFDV
Test: Activity-based probe assay using an ubiquitin vinyl sulfone probe (TR-FRET)
Assay type: biochemical
Conditions: for EC50: activation of heat activated Parkin, HA-Ub-VS probe, read-out: Probe Assay EC50 (μM) [Example 2]
Description: An Ubiquitin vinyl sulfone probe can be used that irreversibly binds to the active site cysteine of Parkin ligase. Covalent attachment of the probe to the Parkin can be monitored by TR-FRET. Candidate activator compounds can be identified by increasing the activity of Parkin ligase due to an increase in TR-FRET signal. Screening for activating compounds can be distinguished from the controls as follows:
100% activation signal=Heat activated Parkin+100 nM control activator in DMSO. 0% activation signal=Heat activated Parkin+DMSO only. Parkin activators can be identified by an increase of the 0% activation signal TR-FRET signal.
• Assay Plate: White 384 well plate (Corning 3572) • Enzyme: Parkin-His tagged 203 μM (10.5 mg/ml) • Probe: Ubiquitin vinyl-sulfone (HA-Ub-VS Boston Biochem U-212) • DMSO: DMSO (Sigma cat # D4540-100ML) • Reaction Buffer: 50 mM HEPES (pH 8.5), 150 mM NaCl, 0.01% Tween 20, 0.1% BSA • Detection Buffer: 50 mM HEPES (pH 8.5), 150 mM NaCl, 0.01% Tween 20, 0.1% BSA, 800 mM KF • Detection Reagent A: 2.6 nM Anti-6HIS-Eu cryptate and 40 nM Anti-HA-XL665 in detection buffer • Eu cryptate: Anti-6HIS-Eu cryptate (CisBio 61HISKLA) • XL665: Anti-HA-XL665 (CisBio 610HAXLA) Enzyme Reaction (15 min Pre Incubation Parkin with Activator Only) • Parkin: 40 nM • HA-Ub-VS Probe: 70 nM • Activator/DMSO: 2× Activator/2% DMSO • Reaction time: 60 minutes • Temperature: 22° C. • Total volume: 10 μl reaction
• Take 10 μl of Enzyme Reaction above and add 10 μl detection Reagent A under the following conditions: • Reaction time: 60 minutes • Temperature: 22° C. • Total volume: 20 μl
Assay procedure (Using HP D-300 compound dispenser and Bravo for the operation):
1) Heat activate Parkin in reaction buffer (500 μl/1.5 ml tube: Eppendorf Thermomixer 5 minutes, 400 rpm at 58° C. and put on ice until needed). 2) Load assay plate wells with 4.8 μl 84.5 nM Parkin in reaction buffer by use of Bravo. 3) Deliver 0.2 μl 200× activator candidates in DMSO by use of HP D-300 compound dispenser. Highest 200× concentration=20 μm and then twofold dilutions. 4) Spin 1000 rpm, 2 minutes, at room temp. 5) Incubate plate for 15 minutes at room temp. 6) Add 5 μl 140 nM HA-Ub-VS Probe in reaction buffer by use of Bravo. 7) Spin 1000 rpm, 2 minutes, at room temp. 8) Incubate plate for 60 minutes at room temp. 9) Add 10 μl 2.6 nM Anti-6HIS-Eu cryptate and 40 nM Anti-HA-XL665 in detection buffer. 10) Spin 1000 rpm, 2 minutes, at room temp. 11) Incubate plate for 60 minutes at room temp. 12) Read plates on Perkin Elmer Envision instrument with the following parameters:
LANCE dual laser protocol loaded into the Envision® software
Top Mirror: LANCE/DELFIA Duel/Bias (Bar code 446) Emission Filter: APC 665 EM (Bar code 205) 2nd Emission Filter: Europium 615 EM (Bar code 203) Read […] (channel 1) and 615 nm (channel 2) wavelengths on Envision®
Data Analysis: The Data can be read in CSV files. There are two tables in those CSV files, which are the values of 655 nm (channel 1) and 615 nm (channel 2) wavelengths respectively. The data is converted to an HTRF Ratio=(Channel 1/Channel 2)*10,000
The average of all the 0 uM controls (DMSO only)=BKGD (Background—0% activation). Subtract BKGD from each HTRF Ratio value=HTRF-BKGD. The average of all the […] 100 nM control activator in DMSO controls=Max (100% activation). The following equation is then used to calculate % Activation for each well/candidate as follows: % Activation=(HTRF−BKGD/Max)*100.
Graphpad Prisim was used with Transform X values: X=Log(X) and nonlinear regression (dose-response-stimulation): Log(agonist) vs Response—variable slope (four parameters) with constrains set to Bottom=0 and Top=100.

| SMILES | EC50 | Parkin Ligase reaction with the Activity-based Ubiquitin vinyl sulfone probe |
| --- | --- | --- |
| Cc1cc(S)n2ncc(-c3cc[nH]c(=O)c3)c2n1 [Compound A3] | > 100 µM | – |
| Cc1nc2c(-c3ccccc3)c(C)nn2c(S)c1Cc1ccccc1 [Compound A, 6-benzyl-2,5-dimethyl-3-phenylpyrazolo[1,5-a]pyrimidine-7-thiol] | 0.4 µM and 3.1 µM and 0.7 µM | increases |
| Cc1nc2c(-c3ccccc3)c(C)nn2c(S)c1Cc1ccncc1 [Compound AA, 2,5-dimethyl-3-phenyl-6-(4-pyridylmethyl)pyrazolo[1,5-a]pyrimidine-7-thiol] | 10.9 µM | – |
| COc1ccc(Cn2ccc(-c3cnn4c(S)cc(C)nc34)cc2=O)cc1 [Compound B3] | 46 µM | – |
| Cc1nc2c(-c3ccccc3)c(C)nn2c(S)c1Cc1ccccn1 [Compound BB, 2,5-dimethyl-3-phenyl-6-(2-pyridylmethyl)pyrazolo[1,5-a]pyrimidine-7-thiol] | 14.9 µM | – |
| CCCc1cc(S)n2nc(C)c(-c3ccccc3)c2n1 [Compound B] | > 100 µM | – |
| Cc1nn2c(S)c3c(nc2c1-c1ccccc1)CN(C)CC3 [Compound C3] | 27 µM | – |
| Cc1nc2c(-c3ccccc3)cnn2c(S)c1Cc1ccccc1 [Compound CC, 6-benzyl-5-methyl-3-phenyl-pyrazolo[1,5-a]pyrimidin-7-thiol] | 5.8 µM | – |
| Cc1cc(S)n2ncc(-c3ccccc3)c2n1 [Compound C] | 75.3 µM | – |
| Cc1nc2c(-c3cccnc3)c(C)nn2c(S)c1Cc1ccccc1 [Compound D3] | 24 µM | – |
| Cc1nn2c(S)c(Cc3ccccc3)cnc2c1-c1ccccc1 [Compound DD, 6-benzyl-2-methyl-3-phenyl-pyrazolo[1,5-a]pyrimidin-7-thiol] | 6.5 µM | – |
| COc1ccccc1-c1c(C)nn2c(S)cc(C)nc12 [Compound D] | > 100 µM | – |
| Cc1nn2c(S)c(CCc3ccccc3)cnc2c1-c1ccccc1 [Compound E3] | 4 µM | – |
| Cc1cc(C)c2c(n1)nn1c(S)cc(C)nc21 [Compound E] | 4 µM | – |
| Cc1cc(S)c2ncc(-c3ccc(F)cc3)n2n1 [Compound F3] | 3 µM | – |
| Cc1nn2c(S)c(CC(C)C)cnc2c1-c1ccccc1 [Compound G3] | 15 µM | – |
| Cc1nc2c(C#N)c(C)nn2c(O)c1Cc1ccccc1 [Compound GG, 6-benzyl-7-hydroxy-2,5-dimethyl-pyrazolo-[1,5-a]pyrimidine-3-carbonitrile] | > 100 µM | – |
| CC(C)(C)c1cc(O)n2ncc(-c3ccc(Cl)cc3)c2n1 [Compound G] | 53.5 µM | – |
| Cc1ccc(-c2cnn3c(O)cc(C)nc23)cc1 [Compound H3] | 51 µM | – |
| Cc1nn2c(O)c(CC(C)C)cnc2c1-c1ccccc1 [Compound I3] | > 100 µM | – |
| CCc1nn2c(S)cc(C)nc2c1-c1ccc(F)cc1 [Compound I] | > 100 µM | – |
| COc1ccc(-c2cnn3c(O)cc(C)nc23)cc1 [Compound J3] | > 100 µM | – |
| Cc1nn2c(O)c3c(nc2c1-c1ccccc1)CCN(C)C3 [Compound K3] | > 100 µM | – |
| Cc1nn2c(S)c3c(nc2c1-c1ccccc1)CCCC3 [Compound K] | 3.3 µM and 3.6 µM | – |
| Cc1nc2c(-c3cccnc3)c(C)nn2c(O)c1Cc1ccccc1 [Compound L3] | > 100 µM | – |

| SMILES | EC50 | Parkin Ligase reaction with the Activity-based Ubiquitin vinyl sulfone probe |
| --- | --- | --- |
| Cc1cc(S)n2ncc(-c3ccc(F)cc3)c2n1 [Compound L, 3-(4-fluorophenyl)-5-methylpyrazolo[1,5-a]pyrimidine-7-thiol] | 18 µM | increases |
| Cc1cc(O)n2ncc(-c3cccc(N(C)C)c3)c2n1 [Compound M3] | 96.3 µM | – |
| Cc1nc2c(C3CCN(C)CC3)c(C)nn2c(S)c1Cc1ccccc1 [Compound N3] | > 100 µM | – |
| Cc1nc2c(C3CCN(C)CC3)c(C)nn2c(O)c1Cc1ccccc1 [Compound O3] | > 100 µM | – |
| Cc1ccc(-c2cnn3c(O)c4c(nc23)CN(C)CC4)cc1 [Compound P3] | > 100 µM | – |
| Cc1cc2nc(C)c(Cc3ccc(Cl)cc3)c(O)n2n1 [Compound P, 6-[(4-chlorophenyl)methyl]-2,5-dimethyl-pyrazolo[1,5-a]pyrimidin-7-ol] | 61.4 µM | – |
| Cc1cc2nc(C)c(Cc3ccc(Cl)cc3)c(S)n2n1 [Compound R, 6-[(4-chlorophenyl)methyl]-2,5-dimethyl-pyrazolo[1,5-a]pyrimidine-7-thiol] | 18.2 µM | – |
| Cc1ccc(-c2cnn3c(S)c4c(nc23)CN(C)CC4)cc1 [Compound S3] | 6 µM | – |
| Cc1nc2c(-c3ccccc3)cnn2c(O)c1Cc1ccccc1 [Compound U, 6-benzyl-5-methyl-3-phenyl-pyrazolo[1,5-a]pyrimidin-7-ol] | 8.73 µM | – |
| Cc1nn2c(O)c(Cc3ccccc3)cnc2c1-c1ccccc1 [Compound V, 6-benzyl-2-methyl-3-phenyl-pyrazolo[1,5-a]pyrimidin-7-ol] | > 100 µM | – |
| Oc1c(Cc2ccccc2)cnc2c(-c3ccccc3)cnn12 [Compound W, 6-benzyl-3-phenyl-pyrazolo[1,5-a]pyrimidin-7-ol] | > 100 µM | – |
| Cc1nc2c(-c3ccccc3)c(C)nn2c(O)c1Cc1ccncc1 [Compound X, 2,5-dimethyl-3-phenyl-6-(4-pyridylmethyl)pyrazolo[1,5-a]pyrimidin-7-ol] | > 100 µM | – |
| Cc1nc2c(-c3ccccc3)c(C)nn2c(O)c1Cc1ccccn1 [Compound Y, 2,5-dimethyl-3-phenyl-6-(2-pyridylmethyl)pyrazolo[1,5-a]pyrimidin-7-ol] | > 100 µM | – |
| Sc1c(Cc2ccccc2)cnc2c(-c3ccccc3)cnn12 [Compound Z, 6-benzyl-3-phenyl-pyrazolo[1,5-a]pyrimidin-7-thiol] | 5.9 µM | – |
| Cc1nc2c(C(=O)N(C)C)c(C)nn2c(O)c1Cc1ccccc1 [EE] | > 100 µM | – |
| Cc1nc2c(-c3ccccn3)c(C)nn2c(O)c1Cc1ccccc1 [FF] | 17.8 µM | – |
| Cc1nn2c(O)cc(C(C)(C)C)nc2c1-c1ccc(Cl)cc1 [F] | 16.7 µM | – |
| Cc1nc2c(-c3ccccn3)c(C)nn2c(S)c1Cc1ccccc1 [HH] | 74.2 µM | – |
| Cc1nn2c(S)cc(C(C)C)nc2c1-c1ccccc1 [H] | > 100 µM | – |
| Cc1nc2c(C(=O)N(C)C)c(C)nn2c(S)c1Cc1ccccc1 [II] | > 100 µM | – |
| Cc1nc2c(C(F)(F)F)c(C)nn2c(O)c1Cc1ccccc1 [JJ] | > 100 µM | – |
| CC(C)(C)c1cc(O)n2ncc(-c3ccccc3)c2n1 [J] | 35.4 µM | – |
| Cc1nc2c(C(F)(F)F)c(C)nn2c(S)c1Cc1ccccc1 [LL] | 34.1 µM | – |
| Cc1nc2c(-c3ccncc3)c(C)nn2c(S)c1Cc1ccccc1 [MM] | 7.6 µM | – |
| Cc1cc(O)n2nc(C)c(-c3ccc(Cl)cc3)c2n1 [M] | > 100 µM | – |
